Assay results from patent US20090105072A1, “2-(Pyridin-2-Yl)-Pyrimidines for Use as Fungicides” (priority 2007, published 2009).

System: Puccinia recondita
Assay: Curative activity against brown rust of wheat caused by Puccinia recondita
Type: in vivo
Settings: 250 ppm, wheat seedlings cultivar Kanzler, 7 days after treatment, untreated plants 90% infected
Description: The active compounds were prepared separately or together as a stock solution with 25 mg of active compound which was made up to 10 ml using a mixture of acetone and/or dimethyl sulfoxide (DMSO) and the emulsifier Wettoll® EM 31 (wetting agent having emulsifying and dispersing action based on the ethoxylated alkylphenols) in a volume ratio of solvent/emulsifier of 99 to 1. The mixture was then made up with water to 100 ml. This stock solution was diluted with the solvent/emulsifier/water mixture described to the concentration of active compound stated below.
Leaves of potted wheat seedlings of the cultivar “Kanzler” were inoculated with a spore suspension of brown rust of wheat (Puccinia recondite). The pots were then placed in a chamber with high atmospheric humidity (90 to 95%) and 20 to 22° C. for 24 hours. During this time, the spores germinated and the germ tubes penetrated into the leaf tissue. The next day, the infected plants were sprayed to runoff point with the above-described active compound solution having the active compound concentration stated below. After the spray coating had dried on, the test plants were cultivated in a greenhouse at temperatures between 20 and 22° C. and 65 to 70% relative atmospheric humidity for 7 days. The extent of the rust fungus development on the leaves was then determined.

`COc1ccc(-c2nc(-c3ncc4c(n3)CCCCC4)ccc2C)cn1` [Example 44] was tested. Which “infection (extent of the rust fungus development on the leaves)” value did it give?
Its value is “no infection”.

With `COc1ccc(-c2nc(-c3ncc4c(n3)CCCCC4)ccc2C)cn1` [drawing 28] as the compound, how does the “infection (extent of the rust fungus development on the leaves)” value read?
The value was 90%.
